Assay results taken from patent US9155312B2, “Fungicidal combinations of active ingredients” (Bayer Intellectual Property GmbH, priority 2004, dated 2015).

system: Erysiphe graminis f.sp. tritici; experiment: Erysiphe test (wheat)/curative; format: in vivo; conditions: curative, sprayed 48 hours after inoculation, application rate 25 g/ha, evaluation 7 days after inoculation
Experimental: Erysiphe Test (Wheat)/Curative
To prepare a suitable preparation of active compound, a commercial formulation of active compound is diluted with water to the desired concentration.
To test for curative activity, young plants were dusted with spores of Erysiphe graminis f.sp. tritici. 48 hours after the inoculation, the plants were sprayed with the preparation of active compound at the stated application rates.
The plants were placed in a greenhouse at a temperature of about 20° C. and a relative atmospheric humidity of about 80% to promote the development of mildew pustules.
Evaluation was carried out 7 days after the inoculation. 0% means an efficacy which corresponds to that of the control, whereas an efficacy of 100% means that no infection is observed.

With `CCOC(=O)C1=NN(c2ccc(Cl)cc2Cl)C(C)(C(=O)OCC)C1` (stereo not drawn) [Mefenpyr, diethyl 1-(2,4-dichlorophenyl)-4,5-dihydro-5-methyl-1H-pyrazole-3,5-dicarboxylate] the “efficacy in % found” value was 0%.

same assay, conditions: curative, sprayed 48 hours after inoculation, application rate 125 g/ha, evaluation 7 days after inoculation

First: CO/N=C(/C1=NOCCO1)c1ccccc1Oc1ncnc(Oc2ccccc2Cl)c1F [Fluoxastrobin, fluoxastrobin]
Second: CO/N=C(/C(=O)OC)c1ccccc1CO/N=C(\C)c1cccc(C(F)(F)F)c1 [Trifloxystrobin, trifloxystrobin]
The “efficacy in % found” value of the first is lower: 0% for the first, 86% for the second.

Going from `CC(C)(C)C(O)(CCc1ccc(Cl)cc1)Cn1cncn1` (stereo not drawn) [Tebuconazole, tebuconazole] to `OC(Cc1ccccc1Cl)(Cn1nc[nH]c1=S)C1(Cl)CC1` (stereo not drawn) [Prothioconazole, prothioconazole], the “efficacy in % found” value falls from 57% to 43%.

For `CCCN(CC)CC1COC2(CCC(C(C)(C)C)CC2)O1` (stereo not drawn) [Spiroxamin, spiroxamine], the “efficacy in % found” value was 0%.
